# Experimental data reported in patent US7638678B2, “Animal model for perimenopause and menopause and methods of inducing ovarian failure” (The Arizona Board of Regents, priority 2002, dated 2009).
# “Also recorded” adds a separate entry of the source. Where two headings read alike, the source gives them in different places.
# What was measured:
# [1] = tested on: ovarian follicles; conditions: mice, cited from earlier work
# [2] = cited from earlier work
# [3] = tested on: FSH; assay: Plasma FSH radioimmunoassay; format: in vivo, B6C3F1 mice; conditions: 160 mg/kg 15 d
# Experimental: (§1) Treatment: Immature mice (d28) were weighed and injected i.p. with either 80 mg/kg (1, 2, or 3 times daily), 160 mg/kg (1 or 2 times daily), or 240 mg/kg (once daily) with VCD or sesame oil (vehicle control, i.p.) for 15 d resulting in a total daily exposure of 80, 160, 240, or 320 mg/kg (n=6/group). All reagents were obtained from Sigma-Aldrich (St. Louis, Mo.). Estrous cycles of each animal were monitored daily by vaginal cytology from date of vaginal opening to persistent diestrus in VCD-treated mice, and from date of vaginal opening to d120 in controls. On d8, d10, d12, d14, d15, d30, d37, d46, d57 and d120, animals were weighed, euthanized by CO2 inhalation, and the ovaries, liver and trunk blood were collected. Plasma was separated from whole blood and stored at −20° C., and liver tissues were stored at −80° C. At each time point, adrenals, kidneys, uteri, ovaries, liver, and spleen were removed, grossly examined for lesions and wet tissue weights were recorded. Additional blood samples were collected by retro-orbital puncture and plasma was collected and stored on d58, d79, d91, and d100.
# Hormone Assays: Plasma FSH was measured by radioimmunoassay (RIA). Rat FSH hormone antigen, rat FSH antiserum and mouse FSH reference preparation were purchased from the National Institute of Diabetes and Digestive and Kidney diseases. Iodination reagents (Iodo-Beads™28665, 28666) were purchased from Pierce (Rockford Ill.). Briefly, a standard curve was prepared and cold standards and samples (100 μl) were added to labeled tubes along with primary antibody (1:1400 dilution) and iodinated FSH. Samples were shaken and stored at 4 C overnight. On day 2, 100 μl secondary antibody (Sigma Chemical, cat. # R9133) was added (1:10) dilution along with 200 μl of 2% normal rabbit serum and incubated at room temperature for 5 minutes. Tubes were centrifuged for 15 minutes at 3000 rpm, supernatant was decanted and pellets were counted in a gamma counter for 1 minute each. All samples were run in duplicate. The mean sensitivity of the assay was 200 pg/ml and inter- and intra-assay coefficients of variation were 2.7% and 6.7% respectively. Plasma 17β-estradiol was measured in unextracted plasma by radioimmunoassay (Diagnostic Products Inc., CA). The mean sensitivity of the assay was 5.1 pg/ml. The intra-assay coefficient of variation was 5.3%. Circulating androstenedione was measured by specific RIA. Androstenedione standards and antibody were provided by Dr. Cheryl Dyer (Northern Arizona University). The mean sensitivity of the assay was 70 pg/ml with an inter-assay coefficient of variation of 5.3%. The results of all RIAs were calculated by four-parameter logistic analysis using the software AssayZap (BioSoft, Ferguson, Mo.). Results are the mean±SEM.
# [4] = intravenous 14C-tagged VCD, cited from earlier work
# [5] = tested on: ovarian follicles; conditions: cited from earlier work
# [6] = tested on: 17β-estradiol; assay: Plasma 17β-estradiol radioimmunoassay; format: in vivo, B6C3F1 mice; conditions: 160 mg/kg 15 d, d37 through d91
# Experimental: as §1, with “Plasma was separated from whole blood and stored at −20° C., and liver tissues were stored at −80° C.” left out, “Additional blood samples were collected by retro-orbital puncture and plasma was collected and stored on d58, d79, d91, and d100.” left out
# (§2) Hormone Assays: Plasma FSH was measured by radioimmunoassay (RIA). […] Tubes were centrifuged for 15 minutes at 3000 rpm, supernatant was decanted and pellets were counted in a gamma counter for 1 minute each. […] Plasma 17β-estradiol was measured in unextracted plasma by radioimmunoassay (Diagnostic Products Inc., CA). […] Circulating androstenedione was measured by specific RIA. […] The results of all RIAs were calculated by four-parameter logistic analysis using the software AssayZap (BioSoft, Ferguson, Mo.). […]
# [7] = tested on: estrous cycle; assay: Estrous cyclicity by vaginal cytology; format: in vivo, B6C3F1 mice; conditions: 160 mg/kg i.p.
# Experimental: as §1
# [8] = tested on: ovarian follicles (primordial, primary, secondary, antral); assay: Histology and follicle counting after VCD dosing; format: in vivo, B6C3F1 mice
# Experimental: as §1
# (§3) Histology and oocyte counting: Ovaries were trimmed of fat and placed in Bouin's fixative (2 hours), transferred to 70% ethanol, paraffin-embedded and serially sectioned (4-5 μm), mounted and stained with hematoxylin and eosin. In every 20th section (10-13 sections per ovary), pre-antral follicles were classified as primordial (oocyte surrounded by a single layer of flattened granulosa cells), primary (oocyte surrounded by a single layer of cuboidal cells), secondary (oocyte surrounded by multiple layers of granulosa cells) or antral follicles (follicles containing a fluid-filled antrum). Femora were collected on d58 from both control and VCD-treated animals, fixed in 4% paraformaldehyde, transferred to formaldehyde/formic acid (Cal-Rite, Richard Allan Scientific, Kalamazoo, […]., decalcified 24 hours, vacuum embedded in paraffin and 4.5 μm sections of distal metaphysis were prepared and stained with hematoxylin and eosin.
# Data Analysis: Oocyte numbers were determined in ovaries from individual animals, averaged, and the means (±SEM) in control versus treated animals were analyzed for significant differences by one-way analysis of variance (ANOVA) with significance set at p<0.05. Post-hoc tests (Tukey-Kramer) were used where appropriate. The differences in plasma hormone concentrations among treatments were analyzed using a one-way ANOVA. The correlation coefficient was determined by regression analysis.
# [9] = tested on: ovarian follicles; conditions: cited from earlier work; remark: listed apart in the source
# [10] = tested on: androstenedione; assay: Circulating androstenedione RIA; format: in vivo, B6C3F1 mice; conditions: 160 mg/kg 15 d
# Experimental: as §1, with “Plasma was separated from whole blood and stored at −20° C., and liver tissues were stored at −80° C.” left out, “Additional blood samples were collected by retro-orbital puncture and plasma was collected and stored on d58, d79, d91, and d100.” left out
# as §2
# [11] = Tolerability of VCD dosing regimens; format: in vivo, mice
# [12] = tested on: ovarian follicles; assay: Follicle depletion by other routes and vehicles; format: in vivo; conditions: i.p. injection in DMSO vehicle
# [13] = tested on: femur; assay: Femur histology; format: in vivo, B6C3F1 mice; conditions: 160 mg/kg 15 d, femora d58
# Experimental: as §3
# [14] = 240 mg/kg (80 mg/kg 3× daily), 15 d, d15
# [15] = 240 mg/kg (240 mg/kg 1× daily), 15 d, d15
# [16] = 320 mg/kg (160 mg/kg 2× daily), 15 d, d15
smiles,measurement,setting,value
"C1CC2OC2CC1C1CO1 (centres unmarked) [VCD, 4-vinylcyclohexene diepoxide]",Number of primordial and primary follicles compared to vehicle controls,[1]; 12 days of dosing,significant reduction
same,Numbers of secondary follicles,[1]; 30 days of dosing,significant reduction
same,Water solubility,[2],water soluble
same,Plasma FSH,[3]; d37,11.5 ± 5.7 ng/mL
same,Plasma FSH,[3]; d46,14.3 ± 1.3 ng/mL
same,Plasma FSH,[3]; d58,20.2 ± 1.2 ng/mL
same,Plasma FSH,[3]; d100,25.8 ± 0.23 ng/mL
same,Plasma FSH,[3]; d120,25.9 ± 1.1 ng/mL
same,Plasma FSH,[3]; d127 (data not shown),increased (p<0.05) relative to controls
same,Half life,[4]; blood,4.4 min
same,Mean residence time,[4],4.7 min
same,Activity on dermal application,[5]; dermal application in acetone,active
same,Follicle loss after other routes of exposure,"[5]; oral, dermal, or inhalation exposure",follicle loss also occurs
same,Plasma levels of 17β-estradiol,[6],below the limit of detection
same,Estrous cyclicity,[7]; by d58,all animals were acyclic
same,Animals with irregular cycle length,"[7]; d15, irregular = less than 3 d or greater than 5 d",7/24
same,Primary follicles,"[8]; 80 mg/kg i.p. daily, 15 d, d15",38.6 % of control
same,Primordial follicles,"[8]; 80 mg/kg i.p. daily, 15 d, ovaries d15",12.1 % of control
same,Primary follicles,"[8]; 160 mg/kg (80 mg/kg 2× daily), 15 d, d15",11.3 % of control
same,Primordial follicles,"[8]; 160 mg/kg (80 mg/kg 2× daily, and 160 mg/kg 1× daily), 15 d, d15",0 % of control
same,Primary follicles,"[8]; 160 mg/kg (160 1× daily), 15 d, d15",2.8 % of control
same,Antral follicles on d46,"[8]; 160 mg/kg i.p. 15 d, d46",2.6 % of control
same,Primary follicles on d46,"[8]; 160 mg/kg i.p. 15 d, d46",0.5 % of control
same,Primordial follicles on d46,"[8]; 160 mg/kg i.p. 15 d, d46",no primordial follicles
same,Secondary follicles on d46,"[8]; 160 mg/kg i.p. 15 d, d46",0.7 % of control
same,Primary and primordial follicle numbers over time,"[8]; 160 mg/kg i.p., d8-d30",reduced (p<0.05) primary and primordial follicle numbers progressively over time
same,Antral follicle numbers,"[8]; 160 mg/kg, 15 d, d15-d46",progressively reduced
same,Primordial follicle loss at the optimal concentration,"[8]; 160 mg/kg, injected 1× daily",complete loss of primordial follicles
same,Primary follicles,[8]; [14],5.1 % of control
same,Primordial follicles,[8]; [14],2.1 % of control
same,Primary follicles,[8]; [15],0 % of control
same,Primordial follicles,[8]; [15],0 % of control
same,Primary follicles,[8]; [16],0.6 % of control
same,Primordial follicles,[8]; [16],0 % of control
same,Premature ovarian failure in long term studies,[9]; F344 rats dosed with VCD,premature ovarian failure occurred within a year
same,Number of primordial and primary follicles compared to vehicle controls,"[9]; rats, 12 days of dosing",significant reduction
same,Numbers of secondary follicles,"[9]; rats, 30 days of dosing",significant reduction
same,Relative abundance of androgen versus estrogen,[10]; d46,97 % of androgen plus estrogen
same,Circulating androstenedione,"[10]; d46, plasma pools",0.73 ± 0.05 ng/mL
same,Adverse effects of the single daily injection regimen,[11]; 160 mg/kg/d i.p. for 15 d,without adverse effects
same,Outcome of total dose injected in a single bolus,[11]; 2400 mg/kg single bolus,died and die within hours
same,Tolerance of dosing 3 times a day,[11]; 3 times a day @ 80 mg/kg (total 240 mg/kg/d),tolerated VCD as well as mice injected once a day with 160 mg/kg; also recorded: tolerate VCD well
same,Follicular depletion with DMSO vehicle versus sesame oil,[12],achieves the same follicular depletion
same,Femur morphology relative to controls,[13],enhanced distances from growth plate to distal metaphysis of the femur with increased lucane
